Experiments:
Type in all cases: cell-based
S. aureus (ATCC®6538™) = experiment: Microbial challenge testing in alginogel with GOX+LPO; conditions: for antimicrobial activity of enhancing candidate only against S. aureus: alginogel without enzymes, highest concentration tested; for reduction in absolute S. aureus counts compared to reference (enzymes only): alginogel, 0.0075% GOX+LPO; for reduction in absolute S. aureus counts compared to guaiacol in the same concentration: alginogel with GOX+LPO, enhancer 0.0005%
Protocol: (§1) To determine the ability of an antimicrobial agent to elicit an antimicrobial preserving efficacy in a gel environment, a microbiological challenge test can be performed. Here, the antimicrobial agent is a combination of the natural enzymes GOX+LPO. […] Microbial challenge testing was performed according to the method described in the European Pharmacopoeia current version chapter 5.1.3 ‘Efficacy of antimicrobial preservation’, but with adapted time points (0, 10, 20, 30, 40, 50, 60, 70 and 80 min instead of 0, 2, 7, 14 and 28 days). In brief, for every enhancing agent to be evaluated, a lab-scale alginogel (based on the Flaminal® formulation, but without the original enhancer guaiacol) including 0.0075% GOX+LPO (1:1) was prepared according to standard practices. Enhancing agents were added to the alginogel in a final concentration ranging from 0.01 to 0,00025% (v/w). As a reference, an alginogel including 0.0075% GOX+LPO (1:1) without the addition of any enhancing agent was included (designated as: enzymes only). As a control, an alginogel without both GOX+LPO (1:1) enzyme solution and enhancing agent (designated as: empty gel) as well as an alginogel only containing the enhancing agent only (designated as: enhancing candidate only) were included. After preparation, a homogenous sample of 10 g was transferred into a 50 ml conical tube for each alginogel to be evaluated and microorganism to be tested. For each test microorganism, including S. aureus (ATCC®6538™), P. aeruginosa (ATCC®9027™), C. albicans (ATCC®10231™) and A. niger (ATCC®16404 ™), a microbial suspension of about 10^8 CFU/ml was prepared in sterile diluent (buffered sodium chloride-peptone solution). Then, the 50 ml conical tubes containing the alginogel samples to be evaluated were inoculated with 100 μl of the designated inoculum. At the start (time point 0) and after 0, 10, 20, 30, 40, 50, 60, 70 and 80 min, the number of viable microorganisms per gram product (expressed as CFU/g) was determined by transferring a sample of 0.5 g of the product into a 15 ml conical tube containing 4.5 ml of sterile diluent and applying general dilution and plate count techniques. For each combination evaluated, this test was repeated at least 1-3 times. The collected data were further analyzed in MS Excel. Mean absolute counts (expressed as log CFU/g) were visualized in a graph.
The purpose of the hereby described experiment was to compare the efficacy of antimicrobial activity enhancement of the GOX+LPO (1:1) enzyme combination by ethanolamine and proline in a microbial challenge test using S. aureus. The test was set up as described in the section on ‘challenge testing’ in Example 2.4. The test was repeated at least 3 times.
The purpose of the hereby described experiment was to compare the efficacy of antimicrobial activity of the GOX+LPO (1:1) enzyme combination in the presence of potassium chloride/potassium bromide and potassium iodide. A microbial challenge test using S. aureus was performed. The test was set up as described in the section on ‘challenge testing’ in Example 2.4.

[1] = test system: P. aeruginosa (ATCC®9027™); experiment: as above; conditions: for antimicrobial activity of enhancing candidate only against P. aeruginosa: alginogel without enzymes, highest concentration tested; for reduction in absolute P. aeruginosa counts compared to reference (enzymes only): alginogel, 0.0075% GOX+LPO; for reduction in absolute P. aeruginosa counts compared to guaiacol in the same concentration: alginogel with GOX+LPO, enhancer 0.0005%
Protocol: as §1

[2] = test system: C. albicans (ATCC®10231™); experiment: as above; conditions: for antimicrobial activity of enhancing candidate only against C. albicans: alginogel without enzymes, highest concentration tested; for reduction in absolute C. albicans counts compared to reference (enzymes only): alginogel, 0.0075% GOX+LPO; for reduction in absolute C. albicans counts compared to guaiacol in the same concentration: alginogel with GOX+LPO, enhancer 0.0005%
Protocol: as §1

A. niger (ATCC®16404 ™) = experiment: as above; conditions: for reduction in absolute A. niger counts compared to guaiacol in the same concentration: alginogel with GOX+LPO; for antimicrobial activity of enhancing candidate only against A. niger: alginogel without enzymes, highest concentration tested; for reduction in absolute A. niger counts compared to reference (enzymes only): alginogel, 0.0075% GOX+LPO
Protocol: as §1

[3] = test system: Staphylococcus aureus ATCC® 6538™; experiment: Absolute microbial counts in function of enzyme solution concentration; conditions: enhancer 0.1%; 0.005%-0.0000391% (v/v) GOX+LPO
From the text: Absolute microbial counts in function of concentration of the antimicrobial agent tested are useful to monitor the bactericidal and fungicidal efficacy of that agent.
To determine the absolute number of live microorganisms in function of different enzyme solution concentrations tested, a classical broth microdilution assay combined with standard CFU enumeration techniques was used to determine the susceptibility of a series of microbes commonly detected in infected wounds, including (a) the Gram-positive bacterium Staphylococcus aureus ATCC® 6538™ (results shown below), (b) the Gram-negative bacterium Pseudomonas aeruginosa ATCC®9027™ (results shown below), (c) the yeast Candida albicans ATCC®10231™ (results shown below), and (d) the fungus Aspergillus niger ATCC®16404™ (results shown below). In brief, the broth microdilution assay was set up as previously described (see 2.1). After incubation, the absolute microbial count at the MIC and following higher concentrations (MICx2, MICx4, and so on) was determined using standard CFU enumeration techniques. For each combination evaluated, this test was repeated at least 5 times. The collected data were further analyzed in MS Excel and expressed as log CFU/ml. Mean results were plotted in function of enzyme solution concentration.

[4] = test system: Staphylococcus aureus ATCC® 6538™; experiment: MBC determination, broth microdilution with CFU enumeration; conditions: S. aureus; enhancer 0.1%

Row | SMILES | antimicrobial activity of enhancing candidate only against S. aureus (S. aureus (ATCC®6538™)) | reduction in absolute S. aureus counts compared to reference (enzymes only) (S. aureus (ATCC®6538™); enhancer 0.0025%) | antimicrobial activity of enhancing candidate only against P. aeruginosa [1] | reduction in absolute P. aeruginosa counts compared to reference (enzymes only) ([1]; enhancer 0.0025%) | antimicrobial activity of enhancing candidate only against C. albicans [2] | reduction in absolute C. albicans counts compared to reference (enzymes only) ([2]; enhancer 0.00125%) | reduction in absolute C. albicans counts compared to reference (enzymes only) ([2]; enhancer 0.0025%) | reduction in absolute A. niger counts compared to guaiacol in the same concentration (A. niger (ATCC®16404 ™); enhancer 0.0005%) | antimicrobial activity of enhancing candidate only against A. niger (A. niger (ATCC®16404 ™)) | reduction in absolute S. aureus counts compared to guaiacol in the same concentration (S. aureus (ATCC®6538™)) | reduction in absolute S. aureus counts compared to reference (enzymes only) (S. aureus (ATCC®6538™); enhancer 0.00125-0.0005%) | reduction in absolute P. aeruginosa counts compared to guaiacol in the same concentration [1] | reduction in absolute P. aeruginosa counts compared to reference (enzymes only) ([1]; enhancer 0.00125-0.0005%) | reduction in absolute C. albicans counts compared to guaiacol in the same concentration [2] | reduction in absolute C. albicans counts compared to reference (enzymes only) ([2]; enhancer 0,00125-0,0005%) | reduction in absolute A. niger counts compared to guaiacol in the same concentration (A. niger (ATCC®16404 ™); enhancer 0.0025%) | reduction in absolute A. niger counts compared to reference (enzymes only) (A. niger (ATCC®16404 ™); enhancer 0.0025%) | further results
1 | NC(=O)C[C@H](N)C(=O)O [Asparagine, asparagine] | no antimicrobial activity | immediate entire reduction | no antimicrobial activity | immediate entire reduction | no antimicrobial activity | faster complete reduction | immediate entire reduction | faster complete reduction | no antimicrobial activity | – | – | – | – | – | – | – | – | reduction in absolute S. aureus counts compared to reference (enzymes only) (S. aureus (ATCC®6538™); enhancer 0,00125%): faster complete reduction; reduction in absolute P. aeruginosa counts compared to reference (enzymes only) ([1]; enhancer 0,00125%): faster complete reduction; reduction in absolute A. niger counts compared to reference (enzymes only) (A. niger (ATCC®16404 ™); enhancer 0,0025-0,0005%): faster complete reduction
2 | NC(=O)CC[C@H](N)C(=O)O [Glutamine, glutamine] | no antimicrobial activity | immediate entire reduction | no antimicrobial activity | immediate entire reduction | no antimicrobial activity | – | immediate entire reduction | – | no antimicrobial activity | faster complete reduction | faster complete reduction | faster complete reduction | faster complete reduction | faster complete reduction | faster complete reduction | faster complete reduction | faster complete reduction | reduction in absolute S. aureus counts compared to reference and guaiacol solution [3]: stronger reduction; MBC: GOX+LPO enzyme solution needed [4]: 0.0000391 % (v/v); increase in MBC compared to reference [4]: 4 ×; increase in MBC compared to the enhancing molecule guaiacol [4]: 2 ×
3 | O=C(O)[C@@H]1CCCN1 [Proline, proline] | no antimicrobial activity | immediate entire reduction | no antimicrobial activity | immediate entire reduction | no antimicrobial activity | faster complete reduction | immediate entire reduction | faster complete reduction | no antimicrobial activity | faster complete reduction | faster complete reduction | faster complete reduction | faster complete reduction | faster complete reduction | – | – | faster complete reduction | exposure time to complete reduction of absolute S. aureus counts (average) (S. aureus (ATCC®6538™); alginogel with GOX+LPO (1:1), enhancer 0,0005% (v/v)): 60 min
4 | C[C@@H](O)[C@H](N)C(=O)O [Threonine, threonine] | no antimicrobial activity | immediate entire reduction | no antimicrobial activity | immediate entire reduction | no antimicrobial activity | – | immediate entire reduction | – | no antimicrobial activity | faster complete reduction | faster complete reduction | faster complete reduction | faster complete reduction | faster complete reduction | faster complete reduction | faster complete reduction | faster complete reduction | –
